A word on the Ki: it is the equilibrium dissociation constant of an inhibitor or competing ligand from its target.

Counter-ions that a name gives are not always drawn.

The target in this assay is T1, histamine 3 receptor (H3R) (Homo sapiens, UniProt Q9Y5N1).
T1 construct: expressed in transfected cells; host or cells: CHO cells (HR3-CHO cell line), membranes
T1 sequence (Q9Y5N1 whole entry): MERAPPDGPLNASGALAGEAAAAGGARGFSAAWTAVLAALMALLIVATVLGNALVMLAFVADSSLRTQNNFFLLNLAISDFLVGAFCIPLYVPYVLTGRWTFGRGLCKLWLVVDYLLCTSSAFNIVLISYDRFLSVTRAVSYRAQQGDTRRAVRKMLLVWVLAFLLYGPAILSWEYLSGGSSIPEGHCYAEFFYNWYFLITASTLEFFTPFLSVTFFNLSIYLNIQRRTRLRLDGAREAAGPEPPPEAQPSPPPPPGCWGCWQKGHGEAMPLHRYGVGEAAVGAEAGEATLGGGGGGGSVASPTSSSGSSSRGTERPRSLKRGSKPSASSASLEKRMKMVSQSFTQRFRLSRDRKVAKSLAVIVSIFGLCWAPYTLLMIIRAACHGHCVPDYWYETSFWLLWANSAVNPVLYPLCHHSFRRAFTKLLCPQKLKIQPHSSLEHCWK
Briefly: Binding assay with 3H-(R)α-methylhistamine (competition binding, membranes of the human HR3-CHO cell line). The following applies: competition with 3H(R)α-Methylhistamine 1 nM, Ki calculated from IC50 by Cheng-Prusoff equation. Here is the method:
Binding assay with ^3H—(R)α-methylhistamine
Saturation binding experiments were performed using HR3—CHO membranes prepared as described in Takahashi, K, Tokita, S., Kotani, H. (2003) J. Pharmacol. Exp. Therapeutics 307, 213-218.
An appropriate amount of membrane (60 to 80 μg protein/well) was incubated with increasing concentrations of ^3H(R)α-Methylhistamine di-hydrochloride (0.10 to 10 nM). Non specific binding was determined using a 200 fold excess of cold (R)α-Methylhistamine dihydrobromide (500 nM final concentration). The incubation was carried out at room temperature (in deep-well plates shaking for three hours). The final volume in each well was 250 μl. The incubation was followed by rapid filtration on GF/B filters (pre-soaked with 100 μl of 0.5% PEI in Tris 50 mM shaking at 200 rpm for two hours). The filtration was made using a cell-harvester and the filter plates were then washed five times with ice cold washing buffer containing 0.5 M NaCl. After harvesting, the plates were dried at 55° C. for 60 min, then we added scintillation fluid (Microscint 40, 40 microl in each well) and the amount of radioactivity on the filter was determined in Packard top-counter after shaking the plates for two hours at 200 rpm at room temperature.
Binding Buffer: 50 mM Tris-HCl pH 7.4 and 5 mM MgCl2x 6H2O pH 7.4. Washing Buffer: 50 mM Tris-HCl pH 7.4 and 5 mM MgCl2×6H2O and 0.5 M NaCl pH 7.4:
Indirect measurement of affinity of H3R inverse agonists: twelve increasing concentrations (ranging from […] to 0.3 nM) of the selected compounds were always tested in competition binding experiments using membrane of the human HR3-CHO cell line. An appropriate amount of protein, e.g. approximately 500 cpm binding of RAMH at Kd, were incubated for 1 hour at room temperature in 250 μl final volume in 96-well plates in presence of ^3H(R)α-Methylhistamine (1 nM final concentration=Kd). […]
All compounds were tested at a single concentration in duplicates. […] Ki's were calculated from IC50 based on Cheng-Prusoff equation (Cheng, Y, Prusoff, W H (1973) Biochem Pharmacol 22, 3099-3108).
On to `O=C(c1ccc2cc(OCCCN3CCCCC3)ccc2c1)N1CCCCC1` [Example 1, piperidin-1-yl-[6-(3-piperidin-1-yl-propoxy)-naphthalen-2-yl]-methanone 1:1 hydrochloride], for which the Ki is 26 nM.
Consider `CC1CCCCN1CCCOc1ccc2cc(C(=O)N(C)Cc3ccccc3)ccc2c1` (stereo not drawn) [Example 13, 6-[3-(2-methyl-piperidin-1-yl)-propoxy]-naphthalene-2-carboxylic acid benzyl-methyl-amide 1:1 hydrochloride], for which the Ki is 111 nM.
As to `CC1CCN(C(=O)c2ccc3cc(OCCC4CCCN4C)ccc3c2)CC1` (stereo not drawn) [Example 31, (4-methyl-piperidin-1-yl)-{6-[2-(1-methyl-pyrrolidin-2-yl)-ethoxy]-naphthalen-2-yl}-methanone 1:1 hydrochloride], the Ki was 571 nM.

These data come from patent publication US7608617B2, “Naphthaline derivatives as H3 inverse agonists” (Hoffmann-La Roche Inc., priority 2004, dated 2009).
